ChEMBL document CHEMBL1149998, “Tannins as selective inhibitors of protein kinase C” (Bioorg Med Chem Lett, 1992)

Legend:
[1] = biological target: Protein kinase C, PKC; classical/novel (Homo sapiens) (UniProt O94806+P17252+P05129+Q05655+P05771+Q02156+P24723+Q15139+Q04759); test: Displacement of phorbol [3H]PDBu from protein kinase C; A - Did displace phorbol (PDBu) at 50 uM or less; format: protein assay
Protein kinase C (PKC) = test: Inhibitory activity against protein kinase C (PKC); format: protein assay, Homo sapiens
[2] = Inhibitory activity against c-AMP kinase; Did not inhibit c-AMP kinase

Compound | Phorbol displacement [1] [µM] | IC50 (Protein kinase C (PKC)) [µM] | IC50 [2]
O=C1OCC2OC(=O)c3cc(O)c(O)c(O)c3-c3c(O)c(O)c(O)c4c3C(=O)OC(C2OC(=O)c2cc(O)c(O)c(O)c2-c2c1cc(O)c(O)c2O)C1OC(=O)c2c-4c(O)c(O)c(O)c2[C@@H]1[C@@]1(O)O[C@@H](CO)[C@@H](O)[C@H]1O (some centres not stated) | < 50 | 12 | Not Active
CC1O[C@H](O)C2OC(=O)c3cc(O)c(O)c(O)c3-c3c(cc(O)c(O)c3O)C(=O)OC2C1O (some centres not stated) |  | > 100 | 
O=C(OC[C@H]1O[C@@H](OC(=O)c2cc(O)c(O)c(O)c2)[C@H](O)[C@@H](O)[C@@H]1O)c1cc(O)c(O)c(O)c1 |  | > 100 | 
CC1(C)CC[C@]2(C(=O)O[C@@H]3O[C@H](CO)[C@@H](O)[C@H](O)[C@H]3O)CC[C@]3(C)C(=CC[C@@H]4[C@@]5(C)C[C@@H](O)[C@@H]6OC(=O)c7cc(O)c(O)c(O)c7-c7c(cc(O)c(O)c7O)C(=O)OC[C@@]6(CO)C5CC[C@]43C)C2C1 (some centres not stated) | < 50 | 18 | Not Active
O=C1O[C@H]2[C@@H]3OC(=O)c4cc(O)c(O)c(O)c4-c4c(cc(O)c(O)c4O)C(=O)OC[C@H]2O[C@H](OC(=O)c2cc(O)c(O)c(O)c2)[C@@H]3OC(=O)c2cc(O)c(O)c3c2C2C1=CC(=O)C(O)(O)C2(O)O3 (some centres not stated) |  | 11 | Not Active
O=C(O[C@@H]1O[C@@H]2COC(=O)c3cc(O)c(O)c(O)c3-c3c(cc(O)c(O)c3O)C(=O)O[C@H]([C@H]1O)[C@@H]2O)c1cc(O)c(O)c(O)c1 [CORILAGIN] |  | 20 | 
O=C(O)C1=C[C@@H](O)[C@@H](O)[C@H](OC(=O)c2cc(O)c(O)c(O)c2)C1 |  | > 100 | 
O=C1OC2COC(=O)c3cc(O)c(O)c(O)c3-c3c(O)c(O)c4oc(=O)c5c(c(O)c(O)c6oc(=O)c3c4c65)-c3c(cc(O)c(O)c3O)C(=O)OC2C2OC(=O)c3c(c(O)c(O)c(O)c3-c3c(O)c(O)c(O)c4c3C(=O)OC2[C@@H]4O)-c2c1cc(O)c(O)c2O (some centres not stated) |  | 4 | 
O=C(O[C@H]1[C@H](O)C[C@](O)(C(=O)O)C[C@H]1O)c1cc(O)c(O)c(O)c1 |  | > 100 | 
O=C(O[C@@H]1[C@@H](c2c(O)cc(O)c3c2O[C@H](c2ccc(O)c(O)c2)[C@H](OC(=O)c2cc(O)c(O)c(O)c2)C3)c2c(O)cc(O)cc2O[C@@H]1c1ccc(O)c(O)c1)c1cc(O)c(O)c(O)c1 | < 50 | 4 | Not Active
O=C1O[C@H]2[C@H](O)[C@@H](OC(=O)c3cc(O)c(O)c4c3C3C1=CC(=O)C(O)(O)C3(O)O4)[C@@H](OC(=O)c1cc(O)c(O)c(O)c1)O[C@@H]2CO (some centres not stated) |  | 86 | 
O=C(O[C@@H]1O[C@@H]2COC(=O)c3cc(O)c(O)c(O)c3-c3c(cc(O)c(O)c3O)C(=O)O[C@H]([C@H]1OC(=O)c1cc(O)c(O)c(O)c1)[C@@H]2OC(=O)c1cc(O)c(O)c(O)c1)c1cc(O)c(O)c(O)c1 [PUNICAFOLIN] | < 50 | 4 | Not Active
Oc1cc(O)c2c(c1)O[C@H](c1ccc(O)c(O)c1)[C@H](O)[C@H]2c1c(O)cc(O)c2c1O[C@@]1(c3ccc(O)c(O)c3)Oc3cc(O)c4c(c3C2[C@H]1O)O[C@H](c1ccc(O)c(O)c1)[C@H](O)C4c1c(O)cc(O)c2c1O[C@H](c1ccc(O)c(O)c1)[C@H](O)C2 (some centres not stated) | < 50 | 15 | Not Active
O=C(OC1Cc2c(O)cc(O)c([C@H]3c4c(O)cc(O)c([C@H]5c6c(O)cc(O)cc6O[C@H](c6ccc(O)c(O)c6)[C@@H]5OC(=O)c5cc(O)c(O)c(O)c5)c4O[C@H](c4ccc(O)c(O)c4)C3OC(=O)c3cc(O)c(O)c(O)c3)c2O[C@@H]1c1ccc(O)c(O)c1)c1cc(O)c(O)c(O)c1 (some centres not stated) | < 50 | 2 | Not Active
O=C(O)C[C@@H]1C(=O)O[C@H]2[C@@H]3OC(=O)c4cc(O)c(O)c(O)c4-c4c(cc(O)c(O)c4O)C(=O)OC[C@H]2O[C@@H](OC(=O)c2cc(O)c(O)c(O)c2)[C@@H]3OC(=O)c2cc(O)c(O)c3c2[C@H]1[C@H](O)C(=O)O3 [CHEBULAGIC ACID] |  | 30 | 
O=C1O[C@H]2[C@H](OC(=O)c3cc(O)c(O)c(O)c3)[C@@H](OC(=O)c3cc(O)c(O)c4c3C3C1=CC(=O)C(O)(O)C3(O)O4)[C@@H](OC(=O)c1cc(O)c(O)c(O)c1)O[C@@H]2COC(=O)c1cc(O)c(O)c(O)c1 (some centres not stated) | < 50 | 16 | Not Active
O=C(OC[C@H]1O[C@H](OC(=O)c2cc(O)c(O)c(O)c2)[C@H](O)[C@@H](O)[C@@H]1OC(=O)c1cc(O)c(O)c(O)c1)c1cc(O)c(O)c(O)c1 |  | > 100 | 
O=C(O)C1=C[C@@H](O)[C@@H](O)[C@H](OC(=O)c2cc(O)c(O)c(OC(=O)c3cc(O)c(O)c(O)c3)c2)C1 |  | > 100 | 
Oc1cc(O)c2c(c1)O[C@H](c1ccc(O)c(O)c1)[C@H](O)[C@H]2c1c(O)cc(O)c2c1O[C@H](c1ccc(O)c(O)c1)[C@H](O)[C@H]2c1c(O)cc(O)c2c1O[C@H](c1ccc(O)c(O)c1)[C@H](O)C2 [PROCYANIDIN C1] | < 50 | 40 | Not Active
O=C(OC[C@H]1OC(O)[C@@](O)(COC(=O)c2cc(O)c(O)c(O)c2)[C@@H]1O)c1cc(O)c(O)c(O)c1 (some centres not stated) [HAMAMELITANNIN] |  | > 100 | 

Compound | Phorbol displacement [1] [µM] | IC50 (Protein kinase C (PKC)) [µM] | IC50 [2]
O=C(O[C@@H]1C[C@](OC(=O)c2cc(O)c(O)c(O)c2)(C(=O)O)C[C@@H](OC(=O)c2cc(O)c(O)c(O)c2)[C@H]1OC(=O)c1cc(O)c(O)c(O)c1)c1cc(O)c(O)c(O)c1 | < 50 | 64 | Not Active
Oc1cc(O)c2c(c1)O[C@H](c1ccc(O)c(O)c1)C(O)C2 (some centres not stated) |  | > 100 | 
O=C(O[C@H]1[C@H](O)C[C@](OC(=O)c2cc(O)c(O)c(O)c2)(C(=O)O)C[C@H]1O)c1cc(O)c(O)c(O)c1 |  | > 100 | Not Active
O=C(OC1Cc2c(O)cc(O)cc2O[C@@H]1c1ccc(O)c(O)c1)c1cc(O)c(O)c(O)c1 (some centres not stated) | < 50 | 48 | Not Active
O=C(O[C@@H]1O[C@H](CO)[C@@H](O)[C@H](O)[C@H]1O)c1cc(O)c(O)c(O)c1 |  | > 100 | 
O=C(O)C[C@@H]1C(=O)O[C@H]2[C@H](OC(=O)c3cc(O)c(O)c(O)c3)[C@@H](OC(=O)c3cc(O)c(O)c4c3[C@H]1[C@H](O)C(=O)O4)[C@@H](OC(=O)c1cc(O)c(O)c(O)c1)O[C@@H]2COC(=O)c1cc(O)c(O)c(O)c1 |  | 30 | 
Oc1cc(O)c2c(c1)O[C@@]1(c3ccc(O)c(O)c3)Oc3cc(O)c4c(c3C2[C@H]1O)O[C@H](c1ccc(O)c(O)c1)[C@H](O)C4c1c(O)cc(O)c2c1O[C@H](c1ccc(O)c(O)c1)[C@H](O)C2 (some centres not stated) | < 50 | 30 | Not Active
Oc1cc(O)c2c(c1)O[C@@]1(c3ccc(O)c(O)c3)Oc3cc(O)c4c(c3C2[C@H]1O)O[C@H](c1ccc(O)c(O)c1)[C@H](O)C4 |  | > 100 | 
O=C(O[C@@H]1C[C@](O)(C(=O)O)C[C@@H](OC(=O)c2cc(O)c(O)c(O)c2)[C@H]1OC(=O)c1cc(O)c(O)c(O)c1)c1cc(O)c(O)c(O)c1 |  | > 100 | 
O=C(OC[C@H]1O[C@@H](OC(=O)c2cc(O)c(O)c(O)c2)[C@H](OC(=O)c2cc(O)c(O)c(O)c2)[C@@H](OC(=O)c2cc(O)c(O)c(O)c2)[C@@H]1OC(=O)c1cc(O)c(O)c(O)c1)c1cc(O)c(O)c(O)c1 [PENTAGALLOYL GLUCOSE] | < 50 | 4 | 
O=C(OC[C@H]1O[C@H](O)[C@@](O)(COC(=O)c2cc(O)c(O)c(O)c2)[C@@H]1OC(=O)c1cc(O)c(O)c(O)c1)c1cc(O)c(O)c(O)c1 |  | > 100 | 
C=C1O[C@H]2[C@@H]3OC(=O)c4cc(O)c(O)c(O)c4-c4c(cc(O)c(O)c4O)C(=O)OC[C@H]2O[C@@H](OC(=O)c2cc(O)c(O)c(O)c2)[C@@H]3OC(=O)c2cc(O)c(O)c3c2C2C(O)(O3)C3(O)OC4(C(=O)OC5C(O)COC54O)C12CC3=O (some centres not stated) | < 50 | 17 | Not Active
CC1(C)CC[C@]2(C(=O)O)CC[C@]3(C)C(=CCC4[C@@]5(C)C[C@@H](O)[C@@H]6OC(=O)c7cc(O)c(O)c(O)c7-c7c(cc(O)c(O)c7O)C(=O)OC[C@@]6(CO)C5CC[C@]43C)C2C1 (some centres not stated) | < 50 | 23 | Not Active
O=C1OCC2OC(=O)c3cc(O)c(O)c(O)c3-c3c(O)c(O)c(O)c4c3C(=O)OC(C2OC(=O)c2cc(O)c(O)c(O)c2-c2c1cc(O)c(O)c2O)C1OC(=O)c2c-4c(O)c(O)c(O)c2[C@H]1O (some centres not stated) | < 50 | 8 | Not Active
O=C1OCC2OC(=O)c3cc(O)c(O)c(O)c3-c3c(O)c(O)c(O)c4c3C(=O)OC(C2OC(=O)c2cc(O)c(O)c(O)c2-c2c1cc(O)c(O)c2O)C1OC(=O)c2c-4c(O)c(O)c(O)c2[C@@H]1O (some centres not stated) | < 50 | 4 | Not Active
O=C(O[C@H]1[C@H](O)C[C@](OC(=O)c2cc(O)c(O)c(O)c2)(C(=O)O)C[C@H]1OC(=O)c1cc(O)c(O)c(O)c1)c1cc(O)c(O)c(O)c1 | < 50 | > 100 | Not Active
O=C(OC[C@H]1O[C@@H](O)[C@H](OC(=O)c2cc(O)c(O)c(O)c2)[C@@H](OC(=O)c2cc(O)c(O)c(O)c2)[C@@H]1OC(=O)c1cc(O)c(O)c(O)c1)c1cc(O)c(O)c(O)c1 | < 50 | 82 | Not Active
Oc1cc(O)c2c(c1)O[C@H](c1ccc(O)c(O)c1)C(O)[C@H]2c1c(O)cc(O)c2c1O[C@H](c1ccc(O)c(O)c1)C(O)C2 (some centres not stated) |  | > 100 | 
O=C(OC[C@H]1O[C@@H](OC(=O)c2cc(O)c(O)c(O)c2)[C@H](OC(=O)c2cc(O)c(O)c(O)c2)[C@@H](O)[C@@H]1O)c1cc(O)c(O)c(O)c1 |  | > 100 | 
O=C(O)C1=C[C@@H](OC(=O)c2cc(O)c(O)c(O)c2)[C@@H](O)[C@H](OC(=O)c2cc(O)c(O)c(O)c2)C1 |  | > 100 | 
